Laboratory results taken from patent publication US20020147136A1, “Compounds for targeting endothelial cells, compositions containing the same and methods for their use” (priority 2000, published 2002).
Residues, ends and D or L forms follow the SMILES beside them.

Tested on: HAEC
Experiment: Inhibition of TKPPR-bubble binding to HAEC in static culture by competing agents
Assay type: cell-based, human
Details: for inhibition of bubble binding: 10 μM free TKPPR; for Bubbles Bound (average of duplicate): 1% BRU-114 bubbles
Protocol: Vials of the compositions of example 5 and of example 6 may be reconstituted with 5 mL of sterile saline, injected using a 20-guage 1.5 inch needle. Bubbles may be then formed within the vials by shaking by hand vigorously for 30 seconds. 1 to 5 mL of the bubble formulation may be removed from each vial and diluted with 3 volumes of D-PBS (without calcium or magnesium) within 1 hour of use.
Chamber slides containing confluent HAEC may be drained of culture medium, which was immediately replaced with one of the final bubble solutions prepared above. The wells may be slightly overfilled such that the liquid meniscus protrudes slightly above the plastic well-forming scaffold of the slide. Bubble solutions may be only added to alternate wells to minimize liquid cross-talk. The wells may be sealed with a piece of Parafilm and the slide incubated 20 minutes, inverted (according to Klibanov A. L., Advanced drug Delivery Reviews, 37, 1999, 139-157) to allow the bubbles to rise and make contact with the cells, after which the solutions may be poured off. Weakly associated bubbles may be removed by washing each well twice with 0.5 mL of D-PBS, swirling gently each time before pouring off. Additional D-PBS (0.5 mL) may be added to wells after the washes to keep the cells submerged until microscopic evaluation.
Composition I of Example 5 was repeated exactly as described except that 0.5 mg DPPE-GTKPPR was added (instead of 2.5 mg) yielding compositions with 1% DPPE-GTKPPR. Vials of this composition as well as that of composition I ofExample 5 (5% DPPE-GTKPPR) were reconstituted with 5 mL of sterile saline, injected using a 20-guage 1.5 inch needle. Bubbles were then formed within the vials by shaking by hand vigorously for 30 seconds. 1 to 5 mL of the bubble formulation was removed from each vial and diluted with 3 volumes of D-PBS (without calcium or magnesium) within 1 hour of use.
Chamber slides containing confluent HAEC were drained of culture medium, which was immediately replaced with one of the final bubble solutions prepared above. The wells were slightly overfilled such that the liquid meniscus protruded slightly above the plastic well-forming scaffold of the slide. Bubble solutions were only added to alternate wells to minimize liquid cross-talk. The wells were sealed with a piece of Parafilm and the slide was incubated 20 minutes, inverted to allow the bubbles to rise and make contact with the cells, after which the solutions were poured off. Weakly associated bubbles were removed by washing each well twice with 0.5 mL of D-PBS, swirling gently each time pouring off. Additional D-PBS (0.5 mL) was added to wells after the washes to keep the cells submerged until microscopic evaluation.
Assays were performed as described for Example 7 using microbubble compositions containing 2% BRU-114 (Composition I of Example 5) as a % of total phospholipid in the composition.
Compositions were reconstituted and assays were performed as described in Example 7 using microbubble compositions containing 1% BRU-114 (Composition I of Example 5) as a % of total phospholipid in the composition.
Assays were performed as described for Example 7 using microbubble compositions containing 2% BRU-114 (as a % of total phospholipid in the composition).

inhibition of bubble binding (1% composition bubbles): 82.7%
inhibition of bubble binding (5% composition bubbles): no inhibition
block of bubble association with HAEC (Example 7, 10 to 100 μM free TKPPR peptide): blocked
Bubbles Bound (average of duplicate) (competitor 5 microM): 790
Bubbles Bound (average of duplicate) (competitor 10 microM): 528
Bubbles Bound (average of duplicate) (competitor 25 microM): 106
Bubbles Bound % of control binding (competitor 25 microM, 2% BRU-114 bubbles): 16%
Bubbles Bound (average of duplicate) (competitor 50 microM): 56
Bubbles Bound (average of duplicate) (competitor 100 microM): 17
Average % Inhibition of bubble binding (free TKPPR 5 μM, 1% composition bubbles): 45.7%
Average % Inhibition of bubble binding (free TKPPR 10 μM, 1% composition bubbles): 79.6%
Average % Inhibition of bubble binding (free TKPPR 25 μM, 1% composition bubbles): 82.0%
Average % Inhibition of bubble binding (free TKPPR 50 μM, 1% composition bubbles): 92.7%
Average % Inhibition of bubble binding (free TKPPR 100 μM, 1% composition bubbles): 93.7%
HAEC bubbles bound (free TKPPR 100 μM, 5% bubbles (Composition I of Example 5)): 58
SMILES: CC(O)C(N)C(=O)NC(CCCCN)C(=O)N1CCCC1C(=O)N1CCCC1C(=O)NC(CCCNC(=N)N)C(=O)O [TKPPR, L-Arginine, L-threonyl-L-lysyl-L-prolyl-L-prolyl] (H-TKPPR-OH; configuration not given here)
